Experiment: recombinant barcode read abundance after kanamycin selection (control-corrected) (log10(CPM+1)); higher = more efficient recombination; sequences stand for … in AGTGCAGAGAAAATCGGCCAGTTTTCTCTGCCTGCAGTCCGCATGCCGT…AGATTTATGCAGCGGACTGCCTTTCTCCCAAAGTGATAAACCGGACAGTATCATGGACCGGTTTTCCCGGTAATCCGTATTTGCAAGGTTGGTTTCACT; site = the 11-nt target
How it was run: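 Duplicate cultures were plated either on chloramphenicol/ampicillin LB agar, serving as control, or on chloramphenicol/ampicillin/kanamycin with 0.1 mM IPTG. These came from a pooled E. coli library co-electroporated with a donor plasmid, each member pairing a target with an IS621 bridge RNA target-binding loop. Recombination efficiency equals averaged, control-corrected counts per million of recombinant-junction barcodes. It is listed as log10(CPM+1).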
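Also: IS621 recombinase and bridge RNA in Escherichia coli cells.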

Sequence | recombinant barcode read abundance (log10)
CCTTTCACTTGGGTTCTAACCTGTTGCCT (site CCTATCCCTAG) | 0.029
CCTTTCACTTGGGTTCTAACCTGTTGCCT (site CCTTTCACTAG) | 0.228
CGAATCGCTTGGGTTCTAACCTGTTGCCT (site CGAATCACTAG) | 0.374
CGAATCGCTTGGGTTCTAACCTGTTGCCT (site CGAATCCCTAG) | 0.0216
CGAATCGCTTGGGTTCTAACCTGTTGCCT (site CGAATCGCTAG) | 0.994
CGAATCGCTTGGGTTCTAACCTGTTGCCT (site CGAATCTCTAG) | 0.084
CGAATCTCTTGGGTTCTAACCTGTTGCCT (site CGAATCACTAG) | 0.0112
CGAATCTCTTGGGTTCTAACCTGTTGCCT (site CGAATCCCTAG) | 0.221
CGAATCTCTTGGGTTCTAACCTGTTGCCT (site CGAATCGCTAG) | 0
CGAATCTCTTGGGTTCTAACCTGTTGCCT (site CGAATCTCTAG) | 0.616
CGAATGTCTTGGGTTCTAACCTGTTGCTG (site CGAATGTCTCA) | 1.2
CGAATGTCTTGGGTTCTAACCTGTTGCTG (site GGTATGTCTCA) | 0.202
CGACTCCCTTGGGTTCTAACCTGTTGCGT (site CGACTCCCTAC) | 1.14
CGACTCCCTTGGGTTCTAACCTGTTGCGT (site GTCAAGTCTGA) | 0.391
CGACTGTCTTGGGTTCTAACCTGTTGCCT (site AAGTACACTCA) | 0.0207
CGACTGTCTTGGGTTCTAACCTGTTGCCT (site CGACTGTCTAG) | 1.92
CGAGAACCTTGGGTTCTAACCTGTTGCCT (site AGAGAACCTAG) | 0.0999
CGAGAACCTTGGGTTCTAACCTGTTGCCT (site CGAGAACCTAG) | 1.67
CGAGAACCTTGGGTTCTAACCTGTTGCCT (site GGAGAACCTAG) | 0.0316
CGAGAACCTTGGGTTCTAACCTGTTGCCT (site TGAGAACCTAG) | 0.12
CGAGCAACTTGGGTTCTAACCTGTTGCTT (site CGAGCAACTAA) | 0.0517
CGAGCAACTTGGGTTCTAACCTGTTGCTT (site CGTGTAACTAA) | 0.181

Sequence | recombinant barcode read abundance (log10)
CGAGCTCCTTGGGTTCTAACCTGTTGCAT (site CGAGCTCCTAA) | 0.0507
CGAGCTCCTTGGGTTCTAACCTGTTGCAT (site CGAGCTCCTAC) | 0.154
CGAGCTCCTTGGGTTCTAACCTGTTGCAT (site CGAGCTCCTAG) | 0.425
CGAGCTCCTTGGGTTCTAACCTGTTGCAT (site CGAGCTCCTAT) | 1.86
CGAGCTCCTTGGGTTCTAACCTGTTGCCC (site CGAGCTCCTGG) | 0.591
CGAGCTCCTTGGGTTCTAACCTGTTGCCC (site GGAGCTCCTTG) | 0.512
CGAGCTCCTTGGGTTCTAACCTGTTGCTT (site CGAGCTCCTAA) | 0.324
CGAGCTCCTTGGGTTCTAACCTGTTGCTT (site CGAGCTCCTAC) | 0.0191
CGAGCTCCTTGGGTTCTAACCTGTTGCTT (site CGAGCTCCTAG) | 1.1
CGAGCTCCTTGGGTTCTAACCTGTTGCTT (site CGAGCTCCTAT) | 0.337
CGAGGGGCTTGGGTTCTAACCTGTTGCCT (site CGAGGGACTAG) | 0.127
CGAGGGGCTTGGGTTCTAACCTGTTGCCT (site CGAGGGCCTAG) | 0.0526
CGAGGGGCTTGGGTTCTAACCTGTTGCCT (site CGAGGGGCTAG) | 0.369
CGAGGGGCTTGGGTTCTAACCTGTTGCCT (site CGAGGGTCTAG) | 0.35
CGATAGCCTTGGGTTCTAACCTGTTGCCT (site AGATAGCCTAG) | 0.024
CGATAGCCTTGGGTTCTAACCTGTTGCCT (site CGATAGCCTAG) | 0.643
CGATAGCCTTGGGTTCTAACCTGTTGCCT (site GGATAGCCTAG) | 0.132
CGATAGCCTTGGGTTCTAACCTGTTGCCT (site TGATAGCCTAG) | 0
CGATCTACTTGGGTTCTAACCTGTTGCAG (site AAGGGGCCTAG) | 0.23
CGATCTACTTGGGTTCTAACCTGTTGCAG (site CGATCTACTCT) | 0.0308
CGATTAACTTGGGTTCTAACCTGTTGCCT (site CGATTAACTAG) | 0.139
CGATTAACTTGGGTTCTAACCTGTTGCCT (site CGATTACCTAG) | 0.361

Sequence | recombinant barcode read abundance (log10)
CGATTAACTTGGGTTCTAACCTGTTGCCT (site CGATTAGCTAG) | 0.107
CGATTAACTTGGGTTCTAACCTGTTGCCT (site CGATTATCTAG) | 0.0439
CGCAAATCTTGGGTTCTAACCTGTTGCCT (site CGAAAATCTAG) | 0.0245
CGCAAATCTTGGGTTCTAACCTGTTGCCT (site CGCAAATCTAG) | 0.0815
CGCAAATCTTGGGTTCTAACCTGTTGCCT (site CGGAAATCTAG) | 0.0907
CGCAAATCTTGGGTTCTAACCTGTTGCCT (site CGTAAATCTAG) | 0.166
CGCCACCCTTGGGTTCTAACCTGTTGCCT (site CGCCACCCTAG) | 0.165
CGCCACCCTTGGGTTCTAACCTGTTGCCT (site CTGCACCCTAG) | 0.0944
CGCCCGCCTTGGGTTCTAACCTGTTGCCT (site AGCCCGCCTAG) | 0.165
CGCCCGCCTTGGGTTCTAACCTGTTGCCT (site CGCCCGCCTAG) | 0.0631
CGCCCGCCTTGGGTTCTAACCTGTTGCCT (site GGCCCGCCTAG) | 0.109
CGCCCGCCTTGGGTTCTAACCTGTTGCCT (site TGCCCGCCTAG) | 0.0262
CGCCCTACTTGGGTTCTAACCTGTTGCTT (site CGCCCTACTAA) | 0.311
CGCCCTACTTGGGTTCTAACCTGTTGCTT (site CGCCTAACTAA) | 0.491
CGCCTAACTTGGGTTCTAACCTGTTGCTT (site CGCCCTACTAA) | 0.0705
CGCCTAACTTGGGTTCTAACCTGTTGCTT (site CGCCTAACTAA) | 0.126
CGCCTCCCTTGGGTTCTAACCTGTTGCAT (site CGCCTCCCTAT) | 0.159
CGCCTCCCTTGGGTTCTAACCTGTTGCAT (site GGCCTCCCTAT) | 0
CGCGATCCTTGGGTTCTAACCTGTTGCGT (site AGCGACCCTAC) | 0.0431
CGCGATCCTTGGGTTCTAACCTGTTGCGT (site CGCGATCCTAC) | 0.834
CGCGCTCCTTGGGTTCTAACCTGTTGCCT (site CGCGATCCTAG) | 0.0445
CGCGCTCCTTGGGTTCTAACCTGTTGCCT (site CGCGCTCCTAG) | 0.245

Sequence | recombinant barcode read abundance (log10)
CGCGCTCCTTGGGTTCTAACCTGTTGCCT (site CGCGGTCCTAG) | 0.0941
CGCGCTCCTTGGGTTCTAACCTGTTGCCT (site CGCGTTCCTAG) | 0.0658
CGCTTACCTTGGGTTCTAACCTGTTGCCT (site AGCTTACCTAG) | 0.143
CGCTTACCTTGGGTTCTAACCTGTTGCCT (site CGCTTACCTAG) | 0.0899
CGCTTACCTTGGGTTCTAACCTGTTGCCT (site GGCTTACCTAG) | 0.0208
CGCTTACCTTGGGTTCTAACCTGTTGCCT (site TGCTTACCTAG) | 0.192
CGCTTGTCTTGGGTTCTAACCTGTTGCCG (site CGCTTGTCTCG) | 0.134
CGCTTGTCTTGGGTTCTAACCTGTTGCCG (site CTCTTGTCTTG) | 0.0615
CGGACGCCTTGGGTTCTAACCTGTTGCCT (site CGGACGACTAG) | 0.352
CGGACGCCTTGGGTTCTAACCTGTTGCCT (site CGGACGCCTAG) | 0.892
CGGACGCCTTGGGTTCTAACCTGTTGCCT (site CGGACGGCTAG) | 1.51
CGGACGCCTTGGGTTCTAACCTGTTGCCT (site CGGACGTCTAG) | 0.25
CGGACTTCTTGGGTTCTAACCTGTTGCCT (site CAGACTTCTAG) | 0.182
CGGACTTCTTGGGTTCTAACCTGTTGCCT (site CCGACTTCTAG) | 0.049
CGGACTTCTTGGGTTCTAACCTGTTGCCT (site CGGACTTCTAG) | 0.0521
CGGACTTCTTGGGTTCTAACCTGTTGCCT (site CTGACTTCTAG) | 0.0412
CGGAGAGCTTGGGTTCTAACCTGTTGCCT (site CAGAGAGCTAG) | 0.402
CGGAGAGCTTGGGTTCTAACCTGTTGCCT (site CCGAGAGCTAG) | 0.433
CGGAGAGCTTGGGTTCTAACCTGTTGCCT (site CGGAGAGCTAG) | 1.83
CGGAGAGCTTGGGTTCTAACCTGTTGCCT (site CTGAGAGCTAG) | 0
